In patent US20230157996A1, “SMALL-MOLECULE INHIBITOR TARGETING EB VIRUS NUCLEAR ANTIGEN PROTEIN, PREPARATION METHOD AND USE THEREOF” (priority 2020, published 2023):

Each compound was assayed on C666-1 cells (assay: C666-1 cell viability single concentration (50 μM) inhibition rate (Resazurin)). Settings: Homo sapiens, C6661, 72 h, 50 μM compound, 72 hours, C666-1 cells; read-out: C666-1 cell viability single concentration (50 μM) inhibition rate, Ratio* (Inh %).
Assay type: cell-based
Description: In order to assess the effect of the EBNA1 inhibitor at the cellular level, the cell proliferation inhibition rate was tested, and the inhibition rate of inhibitor at a specific concentration on the proliferation of Epstein-Barr virus positive cell line C666-1 was detected.
In the test, 100 μL C666-1 cells were inoculated in a transparent 96-well plate, and each well contained 5×10^3 cells. After the cells were cultured in an incubator with 5% carbon dioxide at 37° C. for 24 hours, 10 μL compound at a concentration of 500 μmol/L was added into the cells, so that the final concentration of the compound was 50 μmol/L. Two replicate wells were set for each compound, the wells treated with DMSO were set as control wells (Ctrl), and the wells with cell culture medium only were set as blank wells (blank), and they were treated in the incubator with carbon dioxide at 37° C. for 72 hours. The cell viability was assessed using a redox indicator Resazurin. Specifically, 10 μL Resazurin at a concentration of 600 umol/L was added into each well, and incubated at 37° C. for 3 hours, and a Tecan microplate reader was used to detect the fluorescence signal at an excitation wavelength of 560 nm and an emission wavelength of 590 nm. The formula inh %=1−(F−Fblank)/(FCtrl−Fblank)×100% (where, F is the fluorescence intensity of the compound-added wells, FCtrl and Fblank are the readings of the control wells and blank wells, respectively) was used to calculate the inhibition rate of the compound on the proliferation of C666-1 cells, so as to assess the activity of the compound on Epstein-Barr virus positive cells.

| Compound | inhibition at 50 µM |
| --- | --- |
| COc1ccc(C(OC(C)=O)C23CC(c4cccc(C(=O)O)c4)(C2)C3)cc1 (stereo not shown) [Compound 1, 3-(3-(acetoxyl(4-methoxyphenyl)methyl)bicyclo[1. 1.1]pentan-1-yl)benzoic acid] | < 10% |
| CC(=O)OC(c1ccc(C(F)(F)F)nc1)C12CC(c3cccc(C(=O)O)c3)(C1)C2 (stereo not shown) [Compound 2, 3-(3-(acetoxyl(6-(trifluoromethyl)pyridin-3-yl)methyl)bicyclo[1.1.1]pentan-1-yl)benzoic acid] | < 10% |
| O=C(O)c1cccc(C23CC(C(O)c4ccc(C(F)(F)F)nc4)(C2)C3)c1 (stereo not shown) [Compound 3, 3-(3-(hydroxyl(6-(trifluoromethyl)pyridin-3-yl)methyl)bicyclo[1.1.1]pentan-1-yl)benzoic acid] | < 10% |
| O=C(O)c1cccc(C23CC(c4ccccc4)(C2)C3)c1 [Compound 4, 3-(3-phenylbicyclo[1.1.1]pentan-1-yl)benzoic acid] | < 10% |
| COC(=O)c1cccc(C23CC(c4ccccc4)(C2)C3)c1-n1cccc1 [Compound 5, Methyl 3-(3-phenylbicyclo[1.1.1]pentan-1-yl)-2-(1H-pyrrol-1-yl)benzoate] | < 10% |
| O=C(O)c1cccc(C23CC(c4ccccc4)(C2)C3)c1-n1cccc1 [Compound 6, 3-(3-phenylbicyclo[1.1.1]pentan-1-yl)-2-(1H-pyrrol-1-yl)benzoic acid] | < 10% |
| COC(=O)c1cccc(C23CC(c4ccc(OC)cc4)(C2)C3)c1-n1cccc1 [Compound 7, Methyl 3-(3-(4-methoxyphenyl)bicyclo[1.1.1]pentan-1-yl)-2-(1H-pyrrol-1-yl)benzoate] | < 10% |
| COc1ccc(C23CC(c4cccc(C(=O)O)c4-n4cccc4)(C2)C3)cc1 [Compound 8, 3-(3-(4-methoxyphenyl)bicyclo[1.1.1]pentan-1-yl)-2-(1H-pyrrol-1-yl)benzoic acid] | < 10% |
| COC(=O)c1cccc(N2CC3(CN(c4ccccc4)C3)C2)c1N [Compound 9, Methyl 2-amino-3-(6-phenyl-2,6-diazaspiro[3.3]heptan-2-yl)benzoate] | 10 to 30% |
| Nc1c(C(=O)O)cccc1N1CC2(CN(c3ccccc3)C2)C1 [Compound 10, 2-amino-3-(6-phenyl-2,6-diazaspiro[3.3]heptan-2-yl)benzoic acid] | < 10% |
| O=C(O)c1cccc(N2CC3(CN(c4ccccc4)C3)C2)c1-n1cccc1 [Compound 11, 3-(6-phenyl-2,6-diazaspiro[3.3]heptan-2-yl)-2-(1H-pyrrol-1-yl)benzoic acid] | < 10% |
| Nc1ccccc1N1CC2(C1)CN(c1cccc(C(=O)O)c1N)C2 [Compound 12, 2-amino-3-(6-(2-aminophenyl)-2,6-diazaspiro[3.3]heptan-2-yl)benzoic acid] | < 10% |
| COC(=O)c1cccc(N2CC3(CN(c4ccc(N)cc4)C3)C2)c1N [Compound 13, Methyl 2-amino-3-(6-(4-aminophenyl)-2,6-diazaspiro[3.3]heptan-2-yl)benzoate] | > 50% |
| Nc1ccc(N2CC3(C2)CN(c2cccc(C(=O)O)c2N)C3)cc1 [Compound 14, 2-amino-3-(6-(4-aminophenyl)-2,6-diazaspiro[3.3]heptan-2-yl)benzoic acid] | < 10% |
| COC(=O)c1cccc(N2CC3(C2)CN(c2cccc(C(=O)OC)c2N)C3)c1 [Compound 15, Methyl 2-amino-3-(6-(3-(methoxycarbonyl)phenyl)-2,6-diazaspiro[3.3]heptan-2-yl)benzoate] | < 10% |
| Nc1c(C(=O)O)cccc1N1CC2(CN(c3cccc(C(=O)O)c3)C2)C1 [Compound 16, 2-amino-3-(6-(3-carboxylphenyl)-2,6-diazaspiro[3.3]heptan-2-yl)benzoic acid] | < 10% |
| COC(=O)c1cccc(N2CC3(C2)CN(c2cccc(C(=O)OC)c2-n2cccc2)C3)c1 [Compound 17, Methyl 3-(6-(3-(methoxycarbonyl)phenyl)-2,6-diazaspiro[3.3]heptan-2-yl)-2-(1H-pyrrol-1-yl)benzoate] | 10 to 30% |
| O=C(O)c1cccc(N2CC3(C2)CN(c2cccc(C(=O)O)c2-n2cccc2)C3)c1 [Compound 18, 3-(6-(3-carboxylphenyl)-2,6-diazaspiro[3.3]heptan-2-yl)-2-(1H-pyrrol-1-yl)benzoic acid] | < 10% |
| COC(=O)c1cccc(N2CC3(CN(c4ccccc4N)C3)C2)c1-n1cccc1 [Compound 19, Methyl 3-(6-(2-aminophenyl)-2,6-diazaspiro[3.3]heptan-2-yl)-2-(1H-pyrrol-1-yl)benzoate] | > 50% |

| Compound | inhibition at 50 µM |
| --- | --- |
| Nc1ccccc1N1CC2(C1)CN(c1cccc(C(=O)O)c1-n1cccc1)C2 [Compound 20, 3-(6-(2-aminophenyl)-2,6-diazaspiro[3.3]heptan-2-yl)-2-(1H-pyrrol-1-yl)benzoic acid] | < 10% |
| COC(=O)c1cccc(N2CC3(CN(c4ccccc4[N+](=O)[O-])C3)C2)c1-n1cccc1 [Compound 21, Methyl 3-(6-(2-nitrophenyl)-2,6-diazaspiro[3.3]heptan-2-yl)-2-(1H-pyrrol-1-yl)benzoate] | 10 to 30% |
| O=C(O)c1cccc(N2CC3(CN(c4ccccc4[N+](=O)[O-])C3)C2)c1-n1cccc1 [Compound 22, 3-(6-(2-nitrophenyl)-2,6-diazaspiro[3.3]heptan-2-yl)-2-(1H-pyrrol-1-yl)benzoic acid] | < 10% |
| COC(=O)c1ccc(N2CC3(C2)CN(c2cccc(C(=O)OC)c2-n2cccc2)C3)cc1 [Compound 23, Methyl 3-(6-(4-(methoxycarbonyl)phenyl)-2,6-diazaspiro[3.3]heptan-2-yl)-2-(1H-pyrrol-1-yl)benzoate] | < 10% |
| O=C(O)c1ccc(N2CC3(C2)CN(c2cccc(C(=O)O)c2-n2cccc2)C3)cc1 [Compound 24, 3-(6-(4-carboxylphenyl)-2,6-diazaspiro[3.3]heptan-2-yl)-2-(1H-pyrrol-1-yl)benzoic acid] | < 10% |
| COC(=O)c1cccc(N2CC3(CN(c4cccc([N+](=O)[O-])c4)C3)C2)c1[N+](=O)[O-] [Compound 25, Methyl 3-(6-(3-nitrophenyl)-2,6-diazaspiro[3.3]heptan-2-yl)-2-nitrobenzoate] | 10 to 30% |
| O=C(O)c1cccc(N2CC3(CN(c4cccc([N+](=O)[O-])c4)C3)C2)c1[N+](=O)[O-] [Compound 26, 3-(6-(3-nitrophenyl)-2,6-diazaspiro[3.3]heptan-2-yl)-2-nitrobenzoic acid] | < 10% |
| COC(=O)c1cccc(N2CC3(CN(c4cccc(NS(C)(=O)=O)c4)C3)C2)c1[N+](=O)[O-] [Compound 27, Methyl 3-(6-(3-(methylsulfonamido)phenyl)-2,6-diazaspiro[3.3]heptan-2-yl)-2-nitrobenzoate] | < 10% |
| CS(=O)(=O)Nc1cccc(N2CC3(C2)CN(c2cccc(C(=O)O)c2[N+](=O)[O-])C3)c1 [Compound 28, 3-(6-(3-(methylsulfonamido)phenyl)-2,6-diazaspiro[3.3]heptan-2-yl)-2-nitrobenzoic acid] | < 10% |
| COC(=O)c1cccc(N2CC3(CN(c4cccc(NC(C)=O)c4)C3)C2)c1N [Compound 29, Methyl 3-(6-(3-acetylaminophenyl)-2,6-diazaspiro[3.3]heptan-2-yl)-2-aminobenzoate] | 10 to 30% |
| CC(=O)Nc1cccc(N2CC3(C2)CN(c2cccc(C(=O)O)c2N)C3)c1 [Compound 30, 3-(6-(3-acetylaminophenyl)-2,6-diazaspiro[3.3]heptan-2-yl)-2-aminobenzoic acid] | < 10% |
| COC(=O)c1cccc(N2CC3(CN(c4cccc(NS(=O)(=O)C5CC5)c4)C3)C2)c1N [Compound 31, Methyl 2-amino-3-(6-(3-(cyclopropylsulfonamido)phenyl)-2,6-diazaspiro[3.3]heptan-2-yl)benzoate] | 10 to 30% |
| Nc1c(C(=O)O)cccc1N1CC2(CN(c3cccc(NS(=O)(=O)C4CC4)c3)C2)C1 [Compound 32, 2-amino-3-(6-(3-(cyclopropylsulfonamido)phenyl)-2,6-diazaspiro[3.3]heptan-2-yl)benzoic acid] | < 10% |
| COC(=O)c1cccc(N2CC3(CN(c4cccc(N)c4)C3)C2)c1N [Compound 33, Methyl 2-amino-3-(6-(3-aminophenyl)-2,6-diazaspiro[3.3]heptan-2-yl)benzoate] | 10 to 30% |
| Nc1cccc(N2CC3(C2)CN(c2cccc(C(=O)O)c2N)C3)c1 [Compound 34, 2-amino-3-(6-(3aminophenyl)-2,6-diazaspiro[3.3]heptan-2-yl)benzoic acid] | < 10% |
| O=C(O)c1cccc(N2CC(Oc3ccc(CO)cc3)C2)c1 [Compound 35, 3-(3-(4-(hydroxymethyl)phenoxy)azetidin-1-yl)benzoic acid] | 10 to 30% |
| Nc1c(C(=O)O)cccc1N1CC(Oc2ccc(CO)cc2)C1 [Compound 36, 2-amino-3-(3-(4-(hydroxymethyl)phenoxy)azetidin-1-yl)benzoic acid] | < 10% |
| COC(=O)c1cccc(N2CC(Oc3ccc(CO)cc3)C2)c1-n1cccc1 [Compound 37, Methyl 3-(3-(4-(hydroxymethyl)phenoxy)azetidin-1-yl)-2-(1H-pyrrol-1-yl)benzoate] | 30 to 50% |
